Values after ≈ are worked out from the molar mass of the structure shown.
Columns and labels:
[1] = target: T1, Interleukin-1 receptor-associated kinase 4 (Homo sapiens, UniProt Q9NWZ3); experiment: Inhibition of human recombinant full length His6-tagged IRAK4 expressed in baculovirus expression system using H-KKARFSRFAGSSPSQSSMVAR as substrate incubated for 90 mins by fluorescence polarisation assay
T1 sequence (Q9NWZ3 whole entry): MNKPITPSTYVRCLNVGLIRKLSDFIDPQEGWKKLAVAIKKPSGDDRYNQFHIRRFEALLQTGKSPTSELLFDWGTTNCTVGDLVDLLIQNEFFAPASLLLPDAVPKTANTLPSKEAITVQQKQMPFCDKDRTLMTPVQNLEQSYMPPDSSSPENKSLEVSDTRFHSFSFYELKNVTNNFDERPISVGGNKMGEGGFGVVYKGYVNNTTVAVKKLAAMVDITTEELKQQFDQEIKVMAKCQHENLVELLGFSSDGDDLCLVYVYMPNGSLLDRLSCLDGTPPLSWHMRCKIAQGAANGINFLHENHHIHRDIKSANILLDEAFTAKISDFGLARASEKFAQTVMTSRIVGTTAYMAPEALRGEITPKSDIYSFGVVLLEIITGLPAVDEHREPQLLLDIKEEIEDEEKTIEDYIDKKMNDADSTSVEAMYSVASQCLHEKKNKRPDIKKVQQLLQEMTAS

[2] = target: T1, Interleukin-1 receptor-associated kinase 4; experiment: Inhibition of IRAK4 in human THP1-Xblue-MD2-CD14 cells assessed as reduction in LPS-induced NFkappaB transcription by measuring alkaline phosphatase level preincubated for 1 hr followed by LPS stimulation and measured after 20 hrs by quanti-blue reagent based reporter assay
[3] = Kinetic aqueous solubility of the compound in PBS buffer at pH 7.4 incubated for 24 hrs under shaking condition by LC-CLND assay; type: physicochemical; conditions: PBS buffer, pH 7.4; read-out: Kinetic_solubility
[4] = Apparent permeability from apical to basolateral side in MDCK cells at 10 uM incubated for 180 mins and measured up to 180 min by LC-MS/MS analysis; type: ADME, cell-based, Canis lupus familiaris; conditions: dog
[5] = target: Interleukin-1 receptor-associated kinase 1 (Homo sapiens, UniProt P51617); experiment: Inhibition of human recombinant full length N-terminal His6-tagged IRAK1 (Argl94 to Ser712 residues) expressed in insect cells using H-KKARFSRFAGSSPSQSSMVAR as substrate incubated for 60 mins by fluorescence polarisation assay
[6] = target: T2, Interleukin-1 receptor-associated kinase 4 (Homo sapiens) (UniProt Q9NWZ3); experiment: Inhibition of human recombinant full length His6-tagged IRAK4 expressed in baculovirus expression system at 1 uM relative to control
T2 sequence (whole entry): T1 sequence (Q9NWZ3 whole entry)

[7] = Volume of distribution at steady state in mouse at 1 mg/kg, iv; type: ADME, organism-based; conditions: in vivo, read-out: Vdss
[8] = Protein binding in human plasma at 5 uM incubated for 4 hrs by LC-MS/MS analysis; type: ADME, cell-free; conditions: read-out: PPB (converted)
[9] = AUC (infinity) in mouse at 5 mg/kg, po; type: ADME, organism-based; set-up: dose 5 mg/kg, route oral, time infinity; conditions: in vivo
[10] = Cmax in mouse at 5 mg/kg, po; type: ADME, organism-based; set-up: dose 5 mg/kg, route oral; conditions: in vivo, read-out: Cmax
[11] = Blood clearance in mouse at 1 mg/kg, iv; type: ADME, organism-based; conditions: whole blood
[12] = Oral bioavailability in mouse at 5 mg/kg; type: ADME, organism-based; conditions: in vivo
[13] = Protein binding in mouse plasma at 5 uM incubated for 4 hrs by LC-MS/MS analysis; type: ADME, cell-free; conditions: read-out: PPB (converted)
[14] = target: T1, Interleukin-1 receptor-associated kinase 4; experiment: Inhibition of recombinant IRAK4 (unknown origin) using KKARFSRFAGSSPSQSSMVAR as substrate in presence of [gamma33P]-ATP by liquid scintillation counting method
[15] = Cytotoxicity against human THP1-Xblue-MD2-CD14 cells assessed as reduction in cell viability up to 20 uM preincubated for 1 hr followed by LPS stimulation and measured after 20 hrs; type: cell-based
[16] = Lipophilicity, log D of the compound; type: physicochemical; conditions: octanol/water
Homo sapiens = species: Homo sapiens; experiment: Selectivity ratio, ratio of Ki for human recombinant full length N-terminal His6-tagged IRAK1 (Argl94 to Ser712 residues) expressed in insect cells to Ki for human recombinant full length His6-tagged IRAK4 expressed in baculovirus expression system

Interleukin-1 receptor-associated kinase 1, sequence (P51617 whole entry): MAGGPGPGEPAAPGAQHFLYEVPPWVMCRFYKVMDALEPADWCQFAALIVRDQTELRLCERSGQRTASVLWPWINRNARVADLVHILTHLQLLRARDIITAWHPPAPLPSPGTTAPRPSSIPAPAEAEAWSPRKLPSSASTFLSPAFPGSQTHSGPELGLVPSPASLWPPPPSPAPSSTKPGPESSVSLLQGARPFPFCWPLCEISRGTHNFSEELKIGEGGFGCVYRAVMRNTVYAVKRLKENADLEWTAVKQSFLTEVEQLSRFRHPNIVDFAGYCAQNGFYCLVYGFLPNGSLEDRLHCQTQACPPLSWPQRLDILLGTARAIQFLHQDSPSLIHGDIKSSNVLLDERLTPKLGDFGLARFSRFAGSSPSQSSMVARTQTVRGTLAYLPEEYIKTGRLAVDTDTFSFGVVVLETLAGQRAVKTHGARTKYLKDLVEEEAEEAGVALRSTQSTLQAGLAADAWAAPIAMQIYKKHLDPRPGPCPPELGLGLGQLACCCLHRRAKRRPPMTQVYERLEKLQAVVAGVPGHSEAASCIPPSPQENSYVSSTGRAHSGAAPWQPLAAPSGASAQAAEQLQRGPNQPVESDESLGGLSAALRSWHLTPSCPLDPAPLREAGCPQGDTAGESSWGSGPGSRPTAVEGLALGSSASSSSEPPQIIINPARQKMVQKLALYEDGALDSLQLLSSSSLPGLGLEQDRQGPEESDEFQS

SMILES | Ki [1] [nM] | IC50 [2] [nM] | solubility kinetic at 24 h [3] [µM] | Papp A→B at 3 h, 10 µM [4] [×10⁻⁶ cm/s] | Ki [5] [nM] | further results
CC1(C)Cc2cc(NC(=O)c3cnn4cc(C#N)cnc34)c(N3CCOCC3)cc2O1 | 6.1 | 84 | 1 (≈ 0.418 µg/mL) | 2.7 |  | 
COc1cc2ncccc2cc1NC(=O)c1cnn2cccnc12 | 52 | 370 |  |  | 2800 | 
CC(C)(O)[C@]1(C)Cc2cc(NC(=O)c3cnn4cccnc34)c(N3CCOCC3)cc2O1 | 7.3 | 170 | 150 (≈ 65.6 µg/mL) | 21 |  | 
CC1(C)Cc2cc(NC(=O)c3cnn4cccnc34)c(N3CCN(CC(N)=O)CC3)cc2O1 | 2.1 | 25 | 10 (≈ 4.5 µg/mL) | 2.6 |  | 
O=C(Nc1cc2[nH]c(N3CCOCC3)nc2cc1N1CCC(CO)CC1)c1cnn2cccnc12 | 1.7 | 250 |  |  | > 5500 | 
CN1CCC2(CC1)Cc1cc(NC(=O)c3cnn4cccnc34)c(N3CCOCC3)cc1O2 | 7.4 | 230 | 130 (≈ 58.3 µg/mL) | 13 |  | 
CC1(C)Cc2cc(NC(=O)c3cnn4cccnc34)c(N3CCCC3)cc2O1 |  | 140 | 7.1 (≈ 2.68 µg/mL) |  |  | 
CC1(C)Cc2cc(NC(=O)c3cnn4cc(OC(F)F)cnc34)c(N3CCOCC3)cc2O1 | 34 | > 20000 | 1 (≈ 0.459 µg/mL) | 0.6 |  | 
CN(C)c1nc2cc(N3CCC(CO)CC3)c(NC(=O)c3cnn4cccnc34)cc2s1 | 0.5 | 53 |  |  | 95 | inhibition [6]: > 70%
CNC(=O)CN1CCN(c2cc3c(cc2NC(=O)c2cnn4cccnc24)CC(C)(C)O3)CC1 | 3.5 | 60 | 23 (≈ 10.7 µg/mL) | 13 |  | 
CC1(C)Cc2cc(NC(=O)c3cnn4cccnc34)c(N3CCC(C(N)=O)CC3)cc2O1 |  | 53 | 7.1 (≈ 3.08 µg/mL) |  |  | 
CC1(C)Cc2cc(NC(=O)c3cnn4cc(C(F)F)cnc34)c(N3CCOCC3)cc2O1 | 31 | 1200 | 2.5 (≈ 1.11 µg/mL) |  |  | 
O=C(Nc1cc2cnc(N3CCOCC3)nc2cc1N1CCCCC1)c1cnn2cccnc12 | 170 | 3000 |  |  | 5400 | 
Cn1c(N2CCOCC2)nc2cc(N3CCC(CO)CC3)c(NC(=O)c3cnn4cccnc34)cc21 | 1.8 | 97 |  | 2.4 | > 6100 | Vd [7]: 0.4 L/kg; fraction unbound at 4 h, 5 µM [8]: 0.12; AUC(0-inf) [9]: 0.5 µM·h; Cmax [10]: 200 nM; clearance [11]: 23 mL/min/kg; bioavailability [12]: 3%; fraction unbound at 4 h, 5 µM [13]: 0.05
CC1(C)Cc2cc(NC(=O)c3cnn4cc(C5CC5)cnc34)c(N3CCOCC3)cc2O1 |  | > 20000 | 1 (≈ 0.434 µg/mL) |  |  | 
COc1cc2ccccc2cc1NC(=O)c1cnn2cccnc12 |  |  |  |  |  | Ki [14]: 610 nM
CCn1c(N2CCOCC2)nc2cc(N3CCC(CO)CC3)c(NC(=O)c3cnn4cccnc34)cc21 | 95 | 910 |  |  | > 10000 | 
O=C(Nc1cc2ccc(N3CCOCC3)nc2cc1N1CCCCC1)c1cnn2cccnc12 | 290 | 1300 |  |  | 4700 | 
O=C(Nc1cc2cccnc2cc1N1CCCCC1)c1cnn2cccnc12 |  |  |  |  |  | Ki [14]: 8 nM

SMILES | Ki [1] [nM] | IC50 [2] [nM] | solubility kinetic at 24 h [3] [µM] | Papp A→B at 3 h, 10 µM [4] [×10⁻⁶ cm/s] | Ki [5] [nM] | further results
CC1(C)Cc2cc(NC(=O)c3cnn4cc(O)cnc34)c(N3CCOCC3)cc2O1 | 3.2 | 330 | 3.1 (≈ 1.27 µg/mL) | 14 |  | 
O=C(Nc1cc2cccnc2cc1N1CCC(CO)CC1)c1cnn2cccnc12 | 1.7 | 35 | 1 (≈ 0.402 µg/mL) |  | 400 | Activity [15]: Non-Toxic; logD [16]: 3.1; Ratio Ki (Homo sapiens): > 200
COc1cc2cccnc2cc1NC(=O)c1cnn2cccnc12 |  |  |  |  |  | Ki [14]: > 30000 nM
O=C(Nc1cc2[nH]cnc2cc1N1CCC(CO)CC1)c1cnn2cccnc12 | 6.7 | 330 |  |  | > 5700 | 
CC1(C)Cc2cc(NC(=O)c3cnn4cccnc34)c(N3CCC(CO)CC3)cc2O1 |  | 38 | 95 (≈ 40 µg/mL) | 16 |  | Ratio Ki (Homo sapiens): 210
O=C(Nc1cc2oc(N3CCOCC3)nc2cc1N1CCC(CO)CC1)c1cnn2cccnc12 | 1.2 | 60 |  |  | 340 | 
CC1(C)Cc2cc(NC(=O)c3cnn4cccnc34)c(N3CCNCC3)cc2O1 |  | 56 | 110 (≈ 43.2 µg/mL) |  |  | 
CC1(C)Cc2cc(NC(=O)c3cnn4cc(C(N)=O)cnc34)c(N3CCOCC3)cc2O1 |  | 56 | 1 (≈ 0.436 µg/mL) | 0.7 |  | 
CC1(C)Cc2cc(NC(=O)c3cnn4cccnc34)c(N3CCCC(O)CC3)cc2O1 (stereo not drawn) |  | 130 | 25 (≈ 10.5 µg/mL) |  |  | 
CN(C)c1ccc2cc(NC(=O)c3cnn4cccnc34)c(N3CCCCC3)cc2n1 | 26 | 98 |  |  | 500 | 
CC1(C)Cc2cc(NC(=O)c3cnn4cccnc34)c(N3CCC(C(O)C(F)(F)F)CC3)cc2O1 (stereo not drawn) |  | 56 | 1 (≈ 0.489 µg/mL) |  |  | 
CC1(C)Cc2cc(NC(=O)c3cnn4cccnc34)c(N3CCN(CCO)CC3)cc2O1 |  | 97 | 120 (≈ 52.4 µg/mL) | 8.2 |  | 
NCC1CCN(c2cc3ncccc3cc2NC(=O)c2cnn3cccnc23)CC1 | 2 | 41 | 22 (≈ 8.83 µg/mL) |  | 510 | Activity [15]: Non-Toxic; logD [16]: 0.79; Ratio Ki (Homo sapiens): > 200
CC1(C)Cc2cc(NC(=O)c3cnn4cc(CO)cnc34)c(N3CCOCC3)cc2O1 |  | 66 | 15 (≈ 6.35 µg/mL) | 18 |  | 
CC1(C)Cc2cc(NC(=O)c3cnn4c(O)ccnc34)c(N3CCOCC3)cc2O1 | > 8400 | > 20000 | 77 (≈ 31.5 µg/mL) |  |  | 
CC1(C)Cc2cc(NC(=O)c3cnn4cccnc34)c(N3CCOCC3)cc2O1 | 5.3 | 170 | 1 (≈ 0.393 µg/mL) | 14 |  | Ratio Ki (Homo sapiens): 220
COc1cc2cc[nH]c2cc1NC(=O)c1cnn2cccnc12 |  |  |  |  |  | Ki [14]: 790 nM
C[C@@]1(CO)Cc2cc(NC(=O)c3cnn4cccnc34)c(N3CCOCC3)cc2O1 |  |  | 10 (≈ 4.09 µg/mL) | 27 |  | 

— ChEMBL document CHEMBL4359811, “Development of Potent and Selective Pyrazolopyrimidine IRAK4 Inhibitors” (J Med Chem, 2019)
